Experimental data as given in patent publication US12691143B2, “Method for treating cancer” (priority 2020, dated 2026).
“Also recorded” adds a separate entry of the source.

Key:
[1] = tested on: variety of tumor types, biomarker-unselected populations; settings: single agent, Phase I/II clinical trials; cited from earlier work
[2] = tested on: KU19-19 bladder cancer cell line (NER-proficient); assay: In vitro drug sensitivity assay (CellTiter-Glo); type: cell-based; settings: NER-proficient KU19-19; 48 to 72 hours
Description: (§1) Cells were seeded in either 96-well (5,000 cells/well) or 24-well (20,000 cells/well) plates. The following day, irofulven and cisplatin stock solutions were serially diluted in media and added to cells. After 48 to 72 hours, media was removed and CellTiter-Glo® reagent (Promega; Madison, WI) was added. Plates were scanned using a luminescence microplate reader (BioTek). Survival at each drug concentration was plotted as a percentage of survival in drug-free media with error bars representing the standard deviation of at least three experiments.

[3] = tested on: bladder cancer cell lines; assay: In vitro drug sensitivity assay / crystal violet staining, cell line panel; type: cell-based; settings: most bladder cancer cell lines
Description: as §1
(§2) For crystal violet imaging experiments, cells were seeded in 6-well plates (100,000-200,000 cells/well) with 15 nM siRNA transfection mixture (as detailed above). At 24 hours, fresh media containing irofulven or PBS was added and the cells were incubated for an additional 72 hours. Cells were then fixed in formalin solution for 30 minutes and stained with crystal violet prepared in equal volumes of methanol and water. Excess crystal violet was removed by washing with PBS, and plates were then dried and imaged.

[4] = tested on: non-tumor cell lines with a TC-NER or common NER pathway gene defect; settings: cited from earlier work
[5] = tested on: KE1 bladder cancer cell line (ERCC2-mutated derivative of KU19-19, NER-deficient); assay: In vitro drug sensitivity assay (CellTiter-Glo); type: cell-based; settings: NER-deficient KE1, compared with isogenic KU19-19; 48 to 72 hours
Source text: (§3) Bladder cancer cell lines were purchased from ATCC. The KE1 bladder cancer cell line is a derivative of KU19-19 in which an ERCC2 T484 mutation has been introduced by CRISPR/Cas9 gene editing as previously described (6). The MDA-MB-468 breast cancer cell line and its ERCC4-complemented derivative have been previously described (35). Small interfering RNAs (siRNAs) targeting specific NER genes as well as a non-targeting siRNA (siNTC) were purchased from Integrated DNA Technologies Inc. (Coralville, IA, USA; see Table 9 for sequences). Cells were seeded in 6-well plates and grown to 50% confluency. A transfection mixture containing siRNA diluted to a final concentration of 30 nM in Opti-MEM media containing Lipofectamine 3000 (Life Technologies; Carlsbad, CA) was then added to cells. After 48 hours, cells were trypsinized and re-aliquoted to separate wells and transfected with 15 nM siRNA for 24 hours immediately prior to viability assays performed as described below. […]
(§4) Cells were seeded in either 96-well (5,000 cells/well) or 24-well (20,000 cells/well) plates. […] Plates were scanned using a luminescence microplate reader (BioTek). […]

[6] = tested on: SC14 (SW1710 derivative with ERCC2 P463L mutation); assay: In vitro drug sensitivity assay; type: cell-based; settings: ERCC2-mutant SC14 line compared with SW1710
Source text: as §3, §4

[7] = tested on: KE1 cells (NER-deficient); assay: Immunoblotting after irofulven treatment; type: cell-based
Description: Cells were lysed with ice-cold RIPA buffer supplemented with protease and phosphatase inhibitors (Roche). Samples were then sonicated and protein concentrations were determined using the Bradford assay. Sample buffer (Bio-Rad) was added and samples were then denatured at 90° C. for 10 mins. Samples were then loaded in NuPAGE™ protein gels (Thermo Fisher Scientific) and run at 90V for 2-3 hours. The gels were then transferred to nitrocellulose membranes at 30V overnight. Membranes were blocked for 30 mins in 5% milk in TBS buffer. Sections of the membrane corresponding to the appropriate molecular weights were stained overnight in primary antibodies prepared in 1% milk in TBST: XPF (1:700, clone D3G8C rabbit mAB, Cell Signaling); cleaved caspase 3 (1:1000, clone D175, rabbit mAB, Cell Signaling); total and cleaved PARP (1:1000, rabbit mAB, Cell Signaling); phospho-H2AX Ser139 (1:1000, clone JBW301 mouse mAB, Millipore); β-tubulin (1:1000, mouse mAB, Santa Cruz Technologies); Rpb1 CTD (1:1000, clone 4H8 Mouse mAb, Cell Signaling). A Licor Odyssey Infrared Imaging System was used for signal detection using IRDYE-conjugated secondary antibodies (LI-COR Biosciences).
Cells were lysed with ice-cold RIPA buffer supplemented with protease and phosphatase inhibitors (Roche). Samples were then sonicated and protein concentrations were determined using the Bradford assay. […]

[8] = tested on: SW1710 bladder cancer cell line; assay: In vitro drug sensitivity assay / crystal violet staining; type: cell-based; settings: SW1710 compared with other bladder cancer cell lines
Description: as §1, §2

## CC1=C(CO)C2=C(C)C3(CC3)[C@@](C)(O)C(=O)C2=C1 [irofulven]
[1]
  tolerability: well-tolerated
[2]
  drug sensitivity (survival as percentage of drug-free media): minimal sensitivity
[3]
  irofulven sensitivity: resistant; also recorded: minimal sensitivity
[4]
  toxicity to cells from patients with inactivating mutations in a TC-NER or common NER gene: highly toxic
[5]
  drug sensitivity (survival as percentage of drug-free media): significantly more sensitive; also recorded: highly sensitive; also recorded: increased sensitivity
[6]
  drug sensitivity: significantly increased sensitivity
[7]; following irofulven treatment, KE1
  RNA polymerase level (immunoblot): time-dependent loss
[7]; irofulven-treated NER-deficient cells
  phospho-H2AX (γH2AX), cleaved PARP and cleaved caspase-3 (immunoblot): accumulation
[8]
  irofulven sensitivity: much higher sensitivity
